In patent US20170354148A1, “SAFENED HERBICIDAL COMPOSITIONS CONTAINING HALAUXIFEN AND METHODS OF USE THEREOF IN BRASSICA SPECIES” (Dow AgroSciences LLC, priority 2016, published 2017):
Where “and” joins values, the source holds several entries; their conditions need not be identical. Equal values may be shown once.

How the values were obtained:
[1] = system: Roundup Ready® canola (Brassica napus, RR-BRSNN); assay: Example 5 greenhouse trials, postemergence visual injury; conditions: for % Visual Injury Obs / Visual Injury Obs: RR-BRSNN
[2] = system: spring oilseed rape (Brassica napus, BRSNS); assay: Example 4 field trials (Europe), postemergence crop safety, visual phytotoxicity
[3] = system: winter oilseed rape (Brassica napus, BRSNW); assay: Example 5 greenhouse trials, postemergence visual injury; conditions: for % Visual Injury Obs / Visual Injury Obs: BRSNW
[4] = system: Spring Argentine canola (Brassica napus, BRSNS); assay: Example 3 field trials (Canada), postemergence crop safety, visual phytotoxicity; conditions: BRSNS
[5] = halauxifen-methyl alone 2.5 g ai/ha
[6] = halauxifen-methyl alone 5 g ai/ha
[7] = halauxifen-methyl alone 10 g ai/ha

Structure (SMILES): COC(=O)c1nc(-c2ccc(Cl)c(OC)c2F)cc(N)c1Cl [Halauxifen-methyl, methyl 4-amino-3-chloro-6-(4-chloro-2-fluoro-3-methoxyphenyl)-2-pyridineccarboxylate]
- % Visual Injury Obs ([1]; 2.5 g ai/ha alone, 20-22 d): 11%
- % Visual Injury Obs ([1]; 5 g ai/ha alone, 20-22 d): 14%
- % Visual Injury Obs ([1]; 10 g ai/ha alone, 20-22 d): 21%
- % Visual Injury Obs ([1]; halauxifen-methyl 2.5 g ai/ha): 11%
- Visual Injury Obs ([1]; halauxifen-methyl 2.5 g ai/ha): 11%
- % Visual Injury Obs ([1]; halauxifen-methyl 5 g ai/ha): 14%
- Visual Injury Obs ([1]; halauxifen-methyl 5 g ai/ha): 14%
- % Visual Injury Obs ([1]; halauxifen-methyl 10 g ai/ha): 21%
- Visual Injury Obs ([1]; halauxifen-methyl 10 g ai/ha): 21%
- Percent (%) Visual Injury RR-BRSNN Obs [1, 5]: 11%
- Percent (%) Visual Injury RR-BRSNN Obs [1, 6]: 14%
- Percent (%) Visual Injury RR-BRSNN Obs [1, 7]: 21%
- Mean % Visual Growth Inhibition ([2]; Trial 1, 14DAA1, 5 g ae/ha alone): 3%
- Mean % Visual Growth Inhibition ([2]; Trial 1, 14DAA1, 6 g ae/ha alone): 3%
- Mean % Visual Growth Inhibition ([2]; Trial 1, 14DAA1, 10 g ae/ha alone): 3%
- Mean % Visual Growth Inhibition ([2]; Trial 1, 14DAA1, 12 g ae/ha alone): 3%
- Mean % Visual Growth Inhibition ([2]; Trial 2, 17DAA1, 5 g ae/ha alone): 10%
- Mean % Visual Growth Inhibition ([2]; Trial 2, 24DAA1, 5 g ae/ha alone): 10%
- % Visual Injury Obs ([3]; 2.5 g ai/ha alone, 20-22 d): 7%
- % Visual Injury Obs ([3]; 5 g ai/ha alone, 20-22 d): 10%
- % Visual Injury Obs ([3]; 10 g ai/ha alone, 20-22 d): 14%
- % Visual Injury Obs ([3]; halauxifen-methyl 2.5 g ai/ha): 7%
- Visual Injury Obs ([3]; halauxifen-methyl 2.5 g ai/ha): 7%
- % Visual Injury Obs ([3]; halauxifen-methyl 5 g ai/ha): 10%
- Visual Injury Obs ([3]; halauxifen-methyl 5 g ai/ha): 10%
- % Visual Injury Obs ([3]; halauxifen-methyl 10 g ai/ha): 14%
- Visual Injury Obs ([3]; halauxifen-methyl 10 g ai/ha): 14%
- Percent (%) Visual Injury BRSNW Obs [3, 5]: 7%
- Percent (%) Visual Injury BRSNW Obs [3, 6]: 10%
- Percent (%) Visual Injury BRSNW Obs [3, 7]: 14%
- Mean % Visual Injury ([4]; 7DAAA, 5 g ae/ha (Tables 10, 11)): 0.8%
- Mean % Visual Injury ([4]; 15DAAA, 5 g ae/ha (Tables 10, 11)): 50.5%
- Mean % Visual Injury ([4]; 27DAAA, 5 g ae/ha (Tables 10, 11)): 48.5%
- Mean % Visual Injury ([4]; 57DAAA, 5 g ae/ha (Tables 10, 11)): 30.3%
- Mean % Visual Injury ([4]; trial 1, 7DAA1, 1.25 g ae/ha): 1.8%
- Mean % Visual Injury ([4]; trial 1, 7DAA1, 2.5 g ae/ha): 1.8%
- Mean % Visual Injury ([4]; trial 1, 7DAA1, 5 g ae/ha): 2.0%
- Mean % Visual Epinasty ([4]; trial 1, 17DAA1, 0.62 g ae/ha): 2.5%
- Mean % Visual Injury ([4]; trial 1, 17DAA1, 0.62 g ae/ha): 2.5%
- Mean % Visual Epinasty ([4]; trial 1, 17DAA1, 1.25 g ae/ha): 2.5%
- Mean % Visual Injury ([4]; trial 1, 17DAA1, 1.25 g ae/ha): 2.5%
- Mean % Visual Epinasty ([4]; trial 1, 17DAA1, 2.5 g ae/ha): 3.0%
- Mean % Visual Injury ([4]; trial 1, 17DAA1, 2.5 g ae/ha): 3.3%
- Mean % Visual Epinasty ([4]; trial 1, 17DAA1, 5 g ae/ha): 2.5%
- Mean % Visual Injury ([4]; trial 1, 17DAA1, 5 g ae/ha): 3.3%
- Mean % Visual Epinasty ([4]; trial 1, 32DAA1, 0.62 g ae/ha): 5.0%
- Mean % Visual Injury ([4]; trial 1, 32DAA1, 0.62 g ae/ha): 8.3%
- Mean % Visual Injury ([4]; trial 1, 32DAA1, 1.25 g ae/ha): 13.0%
- Mean % Visual Injury ([4]; trial 1, 49DAA1, 0.62 g ae/ha): 0.3%
- Mean % Visual Injury ([4]; trial 1, 49DAA1, 1.25 g ae/ha): 2.3%
- Mean % Visual Injury ([4]; trial 1, 49DAA1, 2.5 g ae/ha): 2.5%
- Mean % Visual Injury ([4]; trial 2, 8DAA1, 5 g ae/ha): 4.0% and 3.0% and 2.0%
- Mean % Visual Injury ([4]; trial 2, 8DAA1, 10 g ae/ha): 4.8% and 3.3% and 2.8% and 2.0%
- Mean % Visual Injury ([4]; trial 2, 17DAA1, 10 g ae/ha): 35.5%
- Mean % Visual Epinasty ([4]; trial 2, 35DAA1, 10 g ae/ha): 4.0% and 2.8%
- Mean % Visual Injury ([4]; trial 2, 48DAA1, 5 g ae/ha): 1.8% and 1.5%
- Mean % Visual Epinasty ([4]; trial 3, 6DAA1, 5 g ae/ha): 9.5%
- Mean % Visual Epinasty ([4]; trial 3, 6DAA1, 10 g ae/ha): 8.8%
- Mean % Visual Epinasty ([4]; trial 3, 23DAA1, 2.5 g ae/ha): 38.8%
- Mean % Visual Epinasty ([4]; trial 3, 23DAA1, 5 g ae/ha): 50.0%
- Mean % Visual Injury ([4]; trial 3, 33DAA1, 5 g ae/ha): 6.5% and 2.0%
- Mean % Visual Injury ([4]; trial 3, 33DAA1, 10 g ae/ha): 5.5%
- Mean % Visual Injury ([4]; trial 3, 69DAA1, 2.5 g ae/ha): 3.0%
- Mean % Visual Injury ([4]; trial 3, 69DAA1, 5 g ae/ha): 4.0%
- Mean % Visual Injury ([4]; trial 4, 8DAA1, 5 g ae/ha): 8.0%
- Mean % Visual Injury ([4]; trial 4, 15DAA1, 0.62 g ae/ha): 3.5%
- Mean % Visual Injury ([4]; trial 4, 15DAA1, 2.5 g ae/ha): 14.3%
- Mean % Visual Epinasty ([4]; trial 4, 17DAA1, 5 g ae/ha): 23.3%
- Mean % Visual Injury ([4]; trial 4, 41DAA1, 5 g ae/ha): 8.0%
- Mean % Visual Injury ([4]; trial 4, 82DAA1, 5 g ae/ha): 6.0%
- Mean % Visual Injury ([4]; trial 5, 7DAA1, 5 g ae/ha): 7.5%
- Mean % Visual Injury ([4]; trial 5, 7DAA1, 10 g ae/ha): 9.0% and 3.5% and 2.0% and 1.5%
- Mean % Visual Injury ([4]; trial 5, 15DAA1, 5 g ae/ha): 27.0%
- Mean % Visual Injury ([4]; trial 5, 15DAA1, 10 g ae/ha): 9.0% and 2.5% and 1.0%
- Mean % Visual Injury ([4]; trial 5, 36DAA1, 10 g ae/ha): 6.0%
- Mean % Visual Injury ([4]; trial 5, 79DAA1, 10 g ae/ha): 3.0% and 4.5% and 5.3%
- Mean % Visual Injury ([4]; trial 6, 6DAA1, 5 g ae/ha): 24.5%
- Mean % Visual Injury ([4]; trial 6, 6DAA1, 10 g ae/ha): 27.5%
- Mean % Visual Injury ([4]; trial 6, 23DAA1, 2.5 g ae/ha): 38.8%
- Mean % Visual Injury ([4]; trial 6, 23DAA1, 5 g ae/ha): 52.5%
- Mean % Visual Injury ([4]; trial 6, 33DAA1, 2.5 g ae/ha): 22.5%
- Mean % Visual Injury ([4]; trial 6, 33DAA1, 5 g ae/ha): 43.0%
- Mean % Visual Injury ([4]; trial 6, 59DAA1, 2.5 g ae/ha): 28.5%
- Mean % Visual Injury ([4]; trial 7, 17DAA1, 5 g ae/ha): 45.0%
- Mean % Visual Injury ([4]; trial 7, 27DAA1, 5 g ae/ha): 34.0%
- Mean % Visual Injury ([4]; trial 8, 7DAA1, 5 g ae/ha): 0.8%
- Mean % Visual Injury ([4]; trial 8, 57DAA1, 0.62 g ae/ha): 4.8%
- Mean % Visual Injury ([4]; trial 9, 27DAA1, 5 g ae/ha): 6.8%
- Mean % Visual Injury ([4]; trial 9, 60DAA1, 10 g ae/ha): 22.5% and 12.5%
